Results taken from patent US20150105252A1, “SUBSTITUTED PYRAZOLES AS HERBICIDES” (E I DU PONT DE NEMOURS AND COMPANY, priority 2013, published 2015).

Assays:
Test in all cases: Test C postemergence
blackgrass = format: in vivo, Alopecurus myosuroides; settings: for Plant response rating (scale of 0 to 100 where 0 is no effect and 100 is complete control), Blackgrass: Postemergence, 31 g ai/ha, visually evaluated after 13 to 15 days; for Blackgrass plant response rating / Plant response rating, Blackgrass: postemergence; for Blackgrass plant response rating: 62 g ai/ha, scale 0 to 100
In short: (§1)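 Postemergence values come from plants sprayed at the 1- to 4-leaf stage (2–18 cm) in peat moss–vermiculite medium; preemergence values from seeds treated in a loam–sand blend. Both evaluated visually against controls after 13–15 greenhouse days, scale 0–100.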

barnyardgrass = format: in vivo, Echinochloa crus-galli; settings: for Plant response rating (scale of 0 to 100 where 0 is no effect and 100 is complete control), Barnyardgrass: Postemergence, 31 g ai/ha, visually evaluated after 13 to 15 days; for Barnyardgrass plant response rating / Plant response rating, Barnyardgrass: postemergence; for Barnyardgrass plant response rating: 62 g ai/ha, scale 0 to 100
Text: (§2) Seeds of plant species selected from blackgrass (Alopecurus myosuroides), ryegrass, Italian (Italian ryegrass, Lolium multiflorum), wheat (winter wheat, Triticum aestivum), galium (catchweed bedstraw, Galium aparine), corn (Zea mays), crabgrass, large (large crabgrass, Digitaria sanguinalis), foxtail, giant (giant foxtail, Setaria faberii), johnsongrass (Sorghum halepense), lambsquarters (Chenopodium album), morningglory (Ipomoea coccinea), nutsedge, yellow (yellow nutsedge, Cyperus esculentus), pigweed (redroot pigweed, Amaranthus retroflexus), ragweed (common ragweed, Ambrosia elation), soybean (Glycine max), barnyardgrass (Echinochloa crus-galli), oilseed rape (Brassica napus), waterhemp (common waterhemp, Amaranthus rudis), oat, wild (wild oat, Avena fatua), kochia (Kochia scoparia), Surinam grass (Brachiaria decumbens), foxtail, green (green foxtail, Setaria viridis), goosegrass (Eleusine indica), bromegrass, downy (downy bromegrass, Bromus tectorum), nightshade (eastern black nightshade, Solanum ptycanthum), cocklebur (common cocklebur, Xanthium strumarium), cupgrass, woolly (woolly cupgrass, Eriochloa villosa), bermudagrass (Cynodon dactylon), sunflower, (common oilseed sunflower, Helianthus annuus), Russian thistle (Salsola kali), and velvetleaf (Abutilon theophrasti) were planted into a blend of loam soil and sand and treated preemergence with test chemicals formulated in a non-phytotoxic solvent mixture which included a surfactant.
(§3) At the same time, plants selected from these crop and weed species and also chickweed (common chickweed, Stellaria media), canarygrass (littleseed canarygrass, Phalaris minor), and deadnettle (henbit deadnettle, Lamium amplexicaule), were planted in pots containing Redi-Earth® planting medium (Scotts Company, 14111 Scottslawn Road, Marysville, Ohio 43041) comprising spaghnum peat moss, vermiculite, wetting agent and starter nutrients and treated with postemergence applications of test chemicals formulated in the same manner. Plants ranged in height from 2 to 18 cm (1- to 4-leaf stage) for postemergence treatments. Treated plants and controls were maintained in a greenhouse for 13 to 15 days, after which time all species were compared to controls and visually evaluated. Plant response ratings, summarized in Table C, are based on a scale of 0 to 100 where 0 is no effect and 100 is complete control. A dash (-) response means no test result.

chickweed = format: in vivo, Stellaria media; settings: for Plant response rating (scale of 0 to 100 where 0 is no effect and 100 is complete control), Chickweed: Postemergence, 31 g ai/ha, visually evaluated after 13 to 15 days; for Chickweed plant response rating / Plant response rating, Chickweed: postemergence; for Chickweed plant response rating: 62 g ai/ha, scale 0 to 100
Text: as §2, §3

galium = format: in vivo, Galium aparine; settings: for Plant response rating (scale of 0 to 100 where 0 is no effect and 100 is complete control), Galium: Postemergence, 31 g ai/ha, visually evaluated after 13 to 15 days; for Galium plant response rating / Plant response rating, Galium: postemergence; for Galium plant response rating: 62 g ai/ha, scale 0 to 100
In short: as §1

foxtail, giant = format: in vivo, Setaria faberii; settings: for Plant response rating (scale of 0 to 100 where 0 is no effect and 100 is complete control), Foxtail, Giant: Postemergence, 31 g ai/ha, visually evaluated after 13 to 15 days; for Foxtail, Giant plant response rating / Plant response rating, Foxtail, Giant: postemergence; for Foxtail, Giant plant response rating: 62 g ai/ha, scale 0 to 100
Text: as §2, §3

soybean = format: in vivo, Glycine max; settings: for Soybean plant response rating / Plant response rating, Soybean: postemergence; for Plant response rating, Soybean: 250 g ai/ha, scale 0 to 100 (0 no effect, 100 complete control)
Text: as §2, §3

waterhemp = format: in vivo, Amaranthus rudis; settings: for Waterhemp plant response rating / Plant response rating, Waterhemp: postemergence; for Waterhemp plant response rating: scale 0 to 100; for Plant response rating, Waterhemp: 250 g ai/ha, scale 0 to 100 (0 no effect, 100 complete control)
Text: as §2, §3

morningglory = format: in vivo, Ipomoea coccinea; settings: for Plant response rating (scale of 0 to 100 where 0 is no effect and 100 is complete control), Morningglory: Postemergence, 31 g ai/ha, visually evaluated after 13 to 15 days; for Morningglory plant response rating / Plant response rating, Morningglory: postemergence; for Morningglory plant response rating: 62 g ai/ha, scale 0 to 100
Text: as §2, §3

ragweed = format: in vivo, Ambrosia elation
In short: as §1

wheat = format: in vivo, Triticum aestivum; settings: for Wheat plant response rating / Plant response rating, Wheat: postemergence; for Wheat plant response rating: scale 0 to 100; for Plant response rating, Wheat: 250 g ai/ha, scale 0 to 100 (0 no effect, 100 complete control)
Text: as §2, §3

crabgrass, large = format: in vivo, Digitaria sanguinalis; settings: for Plant response rating (scale of 0 to 100 where 0 is no effect and 100 is complete control), Crabgrass, Large: Postemergence, 31 g ai/ha, visually evaluated after 13 to 15 days; for Crabgrass, Large plant response rating / Plant response rating, Crabgrass, Large: postemergence; for Crabgrass, Large plant response rating: 62 g ai/ha, scale 0 to 100
Text: as §2, §3

corn = format: in vivo, Zea mays; settings: for Plant response rating (scale of 0 to 100 where 0 is no effect and 100 is complete control), Corn: Postemergence, 31 g ai/ha, visually evaluated after 13 to 15 days; for Corn plant response rating / Plant response rating, Corn: postemergence; for Corn plant response rating: 62 g ai/ha, scale 0 to 100
Text: as §2, §3

ryegrass, Italian = format: in vivo, Lolium multiflorum
In short: as §1

[1] = 250 g ai/ha, scale 0 to 100 (0 no effect, 100 complete control)
[2] = 125 g ai/ha, scale 0 to 100, 0 no effect, 100 complete control
[3] = Postemergence, 31 g ai/ha, visually evaluated after 13 to 15 days
[4] = postemergence, 62 g ai/ha, scale 0 to 100
[5] = postemergence, 250 g ai/ha, scale 0 to 100 (0 no effect, 100 complete control)
[6] = postemergence, 125 g ai/ha, scale 0 to 100, 0 no effect, 100 complete control

Structure (SMILES): CCCc1cc(C(=O)NCC(F)(F)F)nn1Cc1cc(C(F)(F)F)nn1C [Compound 138]
- Plant response rating (scale of 0 to 100 where 0 is no effect and 100 is complete control), Blackgrass (blackgrass): 5
- Blackgrass plant response rating (blackgrass): 10
- Plant response rating, Blackgrass (blackgrass; [1]): 50
- Plant response rating, Blackgrass (blackgrass; [2]): 20
- Plant response rating (scale of 0 to 100 where 0 is no effect and 100 is complete control), Barnyardgrass (barnyardgrass): 10
- Barnyardgrass plant response rating (barnyardgrass): 25
- Plant response rating, Barnyardgrass (barnyardgrass; [1]): 65
- Plant response rating, Barnyardgrass (barnyardgrass; [2]): 20
- Plant response rating (scale of 0 to 100 where 0 is no effect and 100 is complete control), Chickweed (chickweed): 70
- Chickweed plant response rating (chickweed): 80
- Plant response rating, Chickweed (chickweed; [1]): 90
- Plant response rating, Chickweed (chickweed; [2]): 80
- Plant response rating (scale of 0 to 100 where 0 is no effect and 100 is complete control), Galium (galium): 65
- Galium plant response rating (galium): 70
- Plant response rating, Galium (galium; [1]): 80
- Plant response rating, Galium (galium; [2]): 75
- Plant response rating (scale of 0 to 100 where 0 is no effect and 100 is complete control), Foxtail, Giant (foxtail, giant): 5
- Foxtail, Giant plant response rating (foxtail, giant): 5
- Plant response rating, Foxtail, Giant (foxtail, giant; [1]): 50
- Plant response rating, Foxtail, Giant (foxtail, giant; [2]): 10
- Plant response rating (scale of 0 to 100 where 0 is no effect and 100 is complete control), Soybean (soybean; [3]): 65
- Soybean plant response rating (soybean; 62 g ai/ha, scale 0 to 100): 75
- Plant response rating, Soybean (soybean): 65
- Soybean plant response rating (soybean; [2]): 90
- Plant response rating (scale of 0 to 100 where 0 is no effect and 100 is complete control), Waterhemp (waterhemp; [3]): 75
- Waterhemp plant response rating (waterhemp; 62 g ai/ha): 70
- Plant response rating, Waterhemp (waterhemp): 95
- Waterhemp plant response rating (waterhemp): 100
- Plant response rating (scale of 0 to 100 where 0 is no effect and 100 is complete control), Morningglory (morningglory): 60
- Morningglory plant response rating (morningglory): 85
- Plant response rating, Morningglory (morningglory; [1]): 95
- Plant response rating, Morningglory (morningglory; [2]): 85
- Plant response rating (scale of 0 to 100 where 0 is no effect and 100 is complete control), Ragweed (ragweed; [3]): 10
- Ragweed plant response rating (ragweed; [4]): 30
- Plant response rating, Ragweed (ragweed; [5]): 60
- Plant response rating, Ragweed (ragweed; [6]): 50
- Plant response rating (scale of 0 to 100 where 0 is no effect and 100 is complete control), Wheat (wheat; [3]): 5
- Wheat plant response rating (wheat; 62 g ai/ha): 5
- Plant response rating, Wheat (wheat): 15
- Wheat plant response rating (wheat): 15
- Plant response rating (scale of 0 to 100 where 0 is no effect and 100 is complete control), Crabgrass, Large (crabgrass, large): 5
- Crabgrass, Large plant response rating (crabgrass, large): 5
- Plant response rating, Crabgrass, Large (crabgrass, large; [1]): 70
- Plant response rating, Crabgrass, Large (crabgrass, large; [2]): 30
- Plant response rating (scale of 0 to 100 where 0 is no effect and 100 is complete control), Corn (corn): 15
- Corn plant response rating (corn): 15
- Plant response rating, Corn (corn; [1]): 30
- Plant response rating, Corn (corn; [2]): 15
- Plant response rating (scale of 0 to 100 where 0 is no effect and 100 is complete control), Ryegrass, Italian (ryegrass, Italian; [3]): 5
- Ryegrass, Italian plant response rating (ryegrass, Italian; [4]): 15
- Plant response rating, Ryegrass, Italian (ryegrass, Italian; [5]): 10
- Plant response rating, Ryegrass, Italian (ryegrass, Italian; [6]): 5

Structure (SMILES): CCc1cc(C(=O)NCC(F)(F)F)nn1Cc1cc(OC(F)F)nn1C [Compound 206]
- Plant response rating (scale of 0 to 100 where 0 is no effect and 100 is complete control), Blackgrass (blackgrass): 0
- Blackgrass plant response rating (blackgrass): 0
- Plant response rating, Blackgrass (blackgrass; [1]): 5
- Plant response rating, Blackgrass (blackgrass; [2]): 5
- Plant response rating (scale of 0 to 100 where 0 is no effect and 100 is complete control), Barnyardgrass (barnyardgrass): 5
- Barnyardgrass plant response rating (barnyardgrass): 5
- Plant response rating, Barnyardgrass (barnyardgrass; [1]): 5
- Plant response rating, Barnyardgrass (barnyardgrass; [2]): 5
- Plant response rating (scale of 0 to 100 where 0 is no effect and 100 is complete control), Chickweed (chickweed): 5
- Chickweed plant response rating (chickweed): 5
- Plant response rating, Chickweed (chickweed; [1]): 75
- Plant response rating, Chickweed (chickweed; [2]): 5
- Plant response rating (scale of 0 to 100 where 0 is no effect and 100 is complete control), Galium (galium): 30
- Galium plant response rating (galium): 30
- Plant response rating, Galium (galium; [1]): 45
- Plant response rating, Galium (galium; [2]): 60
- Plant response rating (scale of 0 to 100 where 0 is no effect and 100 is complete control), Foxtail, Giant (foxtail, giant): 15
- Foxtail, Giant plant response rating (foxtail, giant): 5
- Plant response rating, Foxtail, Giant (foxtail, giant; [1]): 5
- Plant response rating, Foxtail, Giant (foxtail, giant; [2]): 5
- Plant response rating, Soybean (soybean): 35
- Soybean plant response rating (soybean; [2]): 45
- Plant response rating, Waterhemp (waterhemp): 45
- Waterhemp plant response rating (waterhemp): 35
- Plant response rating (scale of 0 to 100 where 0 is no effect and 100 is complete control), Morningglory (morningglory): 40
- Morningglory plant response rating (morningglory): 40
- Plant response rating, Morningglory (morningglory; [1]): 65
- Plant response rating, Morningglory (morningglory; [2]): 60
- Plant response rating, Ragweed (ragweed; [5]): 20
- Plant response rating, Ragweed (ragweed; [6]): 35
- Plant response rating, Wheat (wheat): 0
- Wheat plant response rating (wheat): 0
- Plant response rating (scale of 0 to 100 where 0 is no effect and 100 is complete control), Crabgrass, Large (crabgrass, large): 5
- Crabgrass, Large plant response rating (crabgrass, large): 5
- Plant response rating, Crabgrass, Large (crabgrass, large; [1]): 5
- Plant response rating, Crabgrass, Large (crabgrass, large; [2]): 5
- Plant response rating (scale of 0 to 100 where 0 is no effect and 100 is complete control), Corn (corn): 5
- Corn plant response rating (corn): 5
- Plant response rating, Corn (corn; [1]): 5
- Plant response rating, Corn (corn; [2]): 5
- Plant response rating, Ryegrass, Italian (ryegrass, Italian; [5]): 0
- Plant response rating, Ryegrass, Italian (ryegrass, Italian; [6]): 0
